# Measured values as given in patent US9777008B2, “PRMT5 inhibitors and uses thereof” (Epizyme, Inc., priority 2012, dated 2017).
# What was measured:
# Z-138 cell line = assay: Z-138 Proliferation Assay (Cell-Titer Glo, 5 days); assay type: cell-based; details: Z-138 cells
# Excerpt: [formula] Z-138 Proliferation Assay
# Z-138 suspension cells were purchased from ATCC (American Type Culture Collection, Manassas, Va.). RPMI/Glutamax medium, penicillin-streptomycin, heat inactivated fetal bovine serum were purchased from Life Technologies, Grand Island, N.Y., USA. V-bottom polypropylene 384-well plates were purchased from Greiner Bio-One, Monroe, N.C., USA. Cell culture 384-well white opaque plates were purchased from Perkin Elmer, Waltham, Mass., USA. Cell-Titer Glo® was purchased from Promega Corporation, Madison, Wis., USA. SpectraMax M5 plate reader was purchased from Molecular Devices LLC, Sunnyvale, Calif., USA. […] Cell viability was measured by quantitation of ATP present in the cell cultures, adding […] of Cell Titer Glo® reagent to the cell plates. Luminescence was read in the SpectraMax M5 microplate reader. The concentration of compound inhibiting cell viability by 50% was determined using a 4-parametric fit of the normalized dose response curves.
# PRMT5/MEP50 = PRMT5/MEP50 (Homo sapiens (Human), UniProt O14744); assay: PRMT5 Biochemical Assay (PRMT5/MEP50 enzyme assay on peptide substrate, 3H-SAM Flashplate)
# PRMT5/MEP50, sequence (O14744 other isoform, or with tags, fused parts or gaps): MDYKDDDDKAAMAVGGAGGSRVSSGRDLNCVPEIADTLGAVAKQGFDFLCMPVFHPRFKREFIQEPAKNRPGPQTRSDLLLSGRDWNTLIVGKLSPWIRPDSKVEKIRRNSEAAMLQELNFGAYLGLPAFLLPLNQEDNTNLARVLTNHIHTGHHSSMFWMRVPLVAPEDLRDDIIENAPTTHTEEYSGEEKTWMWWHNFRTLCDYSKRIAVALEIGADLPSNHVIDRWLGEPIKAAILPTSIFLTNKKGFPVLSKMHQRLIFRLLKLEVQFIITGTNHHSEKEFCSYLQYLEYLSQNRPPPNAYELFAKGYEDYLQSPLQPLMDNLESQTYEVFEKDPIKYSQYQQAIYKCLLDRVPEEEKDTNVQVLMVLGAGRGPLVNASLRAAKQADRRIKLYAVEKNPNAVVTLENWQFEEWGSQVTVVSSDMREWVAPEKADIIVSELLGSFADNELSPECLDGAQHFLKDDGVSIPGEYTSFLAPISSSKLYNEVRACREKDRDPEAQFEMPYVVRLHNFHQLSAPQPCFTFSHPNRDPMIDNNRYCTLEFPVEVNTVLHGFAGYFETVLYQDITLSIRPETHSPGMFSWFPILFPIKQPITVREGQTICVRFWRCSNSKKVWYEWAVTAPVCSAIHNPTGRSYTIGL
# PRMT5/MEP50, sequence (Q9BQA1 other isoform, or with tags, fused parts or gaps partner): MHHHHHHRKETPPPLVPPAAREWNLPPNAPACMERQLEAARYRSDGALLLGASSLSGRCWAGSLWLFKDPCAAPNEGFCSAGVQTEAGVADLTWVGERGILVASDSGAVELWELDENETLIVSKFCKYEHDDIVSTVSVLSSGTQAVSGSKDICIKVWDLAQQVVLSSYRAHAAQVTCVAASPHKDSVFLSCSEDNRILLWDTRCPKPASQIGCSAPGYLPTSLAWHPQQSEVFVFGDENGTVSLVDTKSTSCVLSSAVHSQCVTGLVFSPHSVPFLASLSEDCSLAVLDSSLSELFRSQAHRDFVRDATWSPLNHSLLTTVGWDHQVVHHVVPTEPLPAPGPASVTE
# How it was run: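 FLAG-PRMT5/His-MEP50 from Sf9 cells, 4 nM, with 40 nM biotinylated H4(1-15) peptide and 75 nM 3H-SAM in 20 mM Bicine pH 7.6, 1% DMSO; compound preincubated 30 min at 25 °C. Stopped with 600 uM cold SAM; 3H-peptide captured on streptavidin Flashplate, counted; % inhibition versus DMSO and 100 uM SAH controls, IC50 by 3- or 4-parameter fit.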
Compound,EC50 (Z-138 cell line),IC50 (PRMT5/MEP50)
"OC(COc1cccc(-c2ccc3cn[nH]c3c2)c1)CN1CCc2ccccc2C1 (stereo not shown) [Compound 58, 1-(3-(1H-indazol-6-yl)phenoxy)-3-(3,4-dihydroisoquinolin-2(1H)-yl)propan-2-ol]",10 to 40 µM,0.101 to 1 µM
"N-(3-(3-(3,4-dihydroisoquinolin-2(1H)-yl)-2-hydroxypropoxy)phenyl)pyrimidine-5-carboxamide [Compound 145]",> 20 µM,0.101 to 1 µM
